These are literature values, as cited in EP2583674A2, “ACECLOFENAC SLOW-RELEASE PREPARATION PROVIDING AN OPTIMUM PHARMACOLOGICAL CLINICAL EFFECT WHEN ADMINISTERED ONCE A DAY” (Korea United Pharm, Inc., priority 2010, dated 2011).

The mark [1] stands for this setting: aceclofenac and the metabolites thereof.

For `O=C(O)COC(=O)Cc1ccccc1Nc1c(Cl)cccc1Cl` [aceclofenac, 2-[(2,6-dichlorophenyl)amino]-phenylacetoxyacetic acid], under setting [1], the excreted through stool entry is given as “approximately 20%” and the excreted through urine result is “approximately 70%”. Further, for the setting “in vivo”, the “excretion rate (half-life)” value was “approximately 4 hours”. Where the note is “orally administered”, the duration entry is given as “approximately 12 hours” and the onset time is no more than 30 min.
